# Like-named read-outs stand apart in the source and are kept apart here.
# How the values were obtained:
# [1] = test system: MAPK signaling (phospho-MEK1/2, phospho-ERK1/2) in AM-38 cells; assay: Immunoblotting of MEK1/2 and ERK1/2 phosphorylation, AM-38; assay type: cell-based; conditions: AM-38, 1 h of treatment
# Experimental: Immunoblotting. Cells were lysed using RIPA buffer containing phosphatase (BioVision) and protease inhibitor cocktail (Calbiochem). Protein concentration was determined using the BCA assay (Pierce). Cell lysates containing […] of protein were loaded into each lane of 4% to 20% gradient gels (Bio-Rad) for SDS-PAGE. Proteins were transferred onto PDVF membrane for Western blot analysis. Blots were blocked with BSA for one hour followed by incubation with primary antibody overnight (dilution according to manufacturer's protocols), and then secondary antibody was incubated for one hour. Blots were then imaged with a ChemiDoc Touch (Bio-Rad) after incubation with SuperSignal West Pico Solution (ThermoFischer) following manufacturer's protocols. All antibodies were purchased from Cell Signaling Technology: p-ERK (9101S), ERK (4695S), p-MEK (9121S), MEK (8727S), vinculin (13901S) Rabbit IgG-HRP (7074), […] (5125).
# [2] = test system: SK-MEL-28 cells; assay: 72-hour cell viability assay (Alamar Blue), SK-MEL-28; assay type: cell-based; conditions: melanoma
# Experimental: (§1) Cell Culture and reagents. All cell lines were grown in a 37° C., 5% CO2, humidified environment, in media containing 1% penicillin/streptomycin. Cell culture conditions are as follows: MDCK cells transfected with MDR1 (or ABCB1) were obtained from the Netherlands Cancer Institute (Amsterdam, The Netherlands) and maintained in DMEM with 10% fetal bovine serum (FBS, Gemini). Traditional cell lines A375, CHL-1, B16F10, and U118MG were grown in DMEM with 10% FBS, SK-MEL-28, U87 and T98G in EMEM with 10% FBS, AM-38 in EMEM with 20% HI-FBS (Gibco), HT29 in McCoy's 5A with 10% FBS, HCT116 in RPMI with 10% FBS. Compounds were dissolved in DMSO (1% final concentration, Sigma-Aldrich) for cell culture studies.
# (§2) Cell viability assays. Cells were harvested, seeded in a 96-well plate and allowed to adhere overnight. Compound was added to each well in DMSO (1% final concentration). Cells were incubated for 72 hours before viability was assessed by the Alamar Blue Assay. Raptinal ([…]) was used as a dead control.
# [3] = Blood-brain barrier penetrance, brain and serum levels after single IV injection; assay type: in vivo; conditions: CD-1, mouse, 60 min after single 25 mg/kg IV injection, read-out: brain-to-serum ratio
# Experimental: (§3) Blood-brain barrier penetrance P-gp in vivo assays. All experimental procedures were reviewed and approved by the University of Illinois Institutional Animal Care and Use Committee (Protocol number: 19191). CD-1 mice were purchased from Charles River and acclimated for 4-7 days before use. Mice were administered elacridar or its vehicle at 2.5 mg/kg via lateral tail vein injection. Thirty-minutes post injection, mice were then treated with compounds at 25 mg/kg intravenously now in the other tail vein. At each time point, mice were sacrificed and blood was collected by lacerating the right auricle with iris scissors. An 18-gauge angiocatheter was inserted through the left ventricle, and all residual circulatory volume was removed by perfusing 0.9% saline solution via an analog peristaltic pump. Brains were harvested from the cranial vault and flash frozen. Blood samples were centrifuged at 13,000 ref for 10 minutes and the supernatant serum was stored at −80° C. until analysis. Brain samples were homogenized in ice-cold methanol and centrifuged first at 2000 ref for three minutes and then 13,000 ref for ten minutes and supernatant and tissue debris were separated and stored at −80° C. The resultant supernatant and serum were analyzed by LC-MS/MS to determine compound concentrations. […] All compounds were administered at 5 mL/kg.
# [4] = target: T1, P-gp (Mus musculus, UniProt P21447); assay: P-gp in vivo assay (elacridar pretreatment); conditions: for enhancement of BBB penetrance by P-gp inhibition: elacridar 2.5 mg/kg, compound 25 mg/kg IV
# T1 construct: tissue Charles River (CD-1 mice); host or cells: living CD-1 mice; blood-brain barrier / brain
# T1 sequence (P21447 whole entry): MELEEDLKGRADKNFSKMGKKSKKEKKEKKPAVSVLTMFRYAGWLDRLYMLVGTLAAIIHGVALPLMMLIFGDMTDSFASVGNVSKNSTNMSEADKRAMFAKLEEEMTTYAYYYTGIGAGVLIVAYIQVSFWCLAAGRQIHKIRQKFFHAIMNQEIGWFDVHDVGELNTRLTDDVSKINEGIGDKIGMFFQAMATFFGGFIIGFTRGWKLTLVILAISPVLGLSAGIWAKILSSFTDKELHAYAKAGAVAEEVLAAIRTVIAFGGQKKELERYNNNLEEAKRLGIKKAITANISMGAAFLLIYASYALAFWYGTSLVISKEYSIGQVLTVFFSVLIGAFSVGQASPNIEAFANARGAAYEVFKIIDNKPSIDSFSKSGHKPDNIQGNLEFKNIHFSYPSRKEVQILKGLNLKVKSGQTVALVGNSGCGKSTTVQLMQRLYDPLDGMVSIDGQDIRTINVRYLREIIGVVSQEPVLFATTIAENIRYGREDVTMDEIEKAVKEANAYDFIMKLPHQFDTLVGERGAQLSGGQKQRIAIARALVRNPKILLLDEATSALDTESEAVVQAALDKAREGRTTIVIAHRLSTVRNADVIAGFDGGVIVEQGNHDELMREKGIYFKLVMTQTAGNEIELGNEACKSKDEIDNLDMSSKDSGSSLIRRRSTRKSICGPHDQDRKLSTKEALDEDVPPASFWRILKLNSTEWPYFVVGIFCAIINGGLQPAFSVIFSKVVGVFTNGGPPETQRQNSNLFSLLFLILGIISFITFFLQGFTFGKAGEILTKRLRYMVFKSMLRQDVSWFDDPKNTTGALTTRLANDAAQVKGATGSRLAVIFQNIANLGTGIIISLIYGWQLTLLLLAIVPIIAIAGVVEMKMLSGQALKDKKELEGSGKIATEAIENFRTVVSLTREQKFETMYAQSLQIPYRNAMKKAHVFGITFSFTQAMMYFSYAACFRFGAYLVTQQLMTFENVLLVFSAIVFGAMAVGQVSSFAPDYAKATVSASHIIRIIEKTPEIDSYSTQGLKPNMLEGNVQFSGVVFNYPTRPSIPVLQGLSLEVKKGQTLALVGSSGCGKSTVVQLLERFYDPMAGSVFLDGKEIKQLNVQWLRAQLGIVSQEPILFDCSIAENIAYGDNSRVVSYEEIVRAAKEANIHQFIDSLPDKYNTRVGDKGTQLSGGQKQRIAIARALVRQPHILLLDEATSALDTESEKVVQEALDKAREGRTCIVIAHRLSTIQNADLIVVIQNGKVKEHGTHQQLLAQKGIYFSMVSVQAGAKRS
# Experimental: Actionability in animals. […] At each time point, blood and brain were harvested, and compound concentrations in each compartment were quantified.
# In this experiment, brain-to-blood ratios of P-gp substrates […] with the P-gp inhibitor compared to vehicle, while those of non-substrates will remain the same.
# as §3, with “All experimental procedures were reviewed and approved by the University of Illinois Institutional Animal Care and Use Committee (Protocol number: 19191).” left out
# [5] = test system: U118MG cells; assay: 72-hour cell viability assay (Alamar Blue), U118MG; assay type: cell-based; conditions: WT BRAF
# Experimental: as §1, §2
# [6] = test system: AM-38 cells; assay: 72-hour cell viability assay (Alamar Blue), AM-38; assay type: cell-based; conditions: glioma
# Experimental: as §1, §2
# [7] = test system: A375 melanoma cells intracranially implanted; assay: A375 intracranial mouse model of melanoma metastasis; assay type: in vivo; conditions: 50 mg/kg IP once a day, two 5-day cycles, 10 doses
# Experimental: Number of mice per cohort n>3. […] (C) Evaluation of everafenib in an intracranial mouse model. 50,000 A375 melanoma cells were intracranially implanted into 7-week old female athymic nude mice. Five days after inoculation, mice were treated with the vehicle or 50 mg/kg of dabrafenib or everafenib intraperitoneal (IP) once a day for 5 days. After 2 days off, another five daily doses were administered, a total of 10 treatments in the model. Cells were tested to be free of pathogens prior to inoculation. […] Number of mice per cohort=6. Statistical significance was determined by a two-tailed log-rank (Mantel-Cox) test. **P<0.01 ***P<0.001 ****P<0.0001.
# Such a model has been developed using intracranial implantation of the A375 melanoma cell line, and thus, this macro-metastatic model via injection of A375 cells to the mouse forebrain was used to assess everafenib and dabrafenib head-to-head. In the experiment, mice were intracranially implanted with A375 cells and then 5 days later were treated with 50 mg/kg of dabrafenib or everafenib (two cycles of once-per-day for 5 days via IP injection, a total of 10 doses).
# In vivo efficacy model. […] Human melanoma A375 cells were intracranially implanted in 7-week-old female athymic nude mice (50,000 cells/mouse). Cells were tested to be free of pathogens prior to inoculation. […]
# [8] = test system: B16F10 cells; assay: 72-hour cell viability assay (Alamar Blue), B16F10; assay type: cell-based
# Experimental: as §1, §2
# [9] = test system: cell lines with WTBRAF; assay: Cell viability, cell lines with WT BRAF; assay type: cell-based
# Experimental: as §1, §2
# [10] = test system: CHL-1 cells; assay: 72-hour cell viability assay (Alamar Blue), CHL-1; assay type: cell-based
# Experimental: as §1, §2
# [11] = Homo sapiens, SK-MEL-28, V600E BRAF
# [12] = Homo sapiens, U-118-MG, glioma, read-out: U118MG (WT) IC50
# [13] = Homo sapiens, U-118-MG, read-out: U118MG IC50
# [14] = Homo sapiens, AM-38, V600E BRAF
# [15] = Mus musculus, B16-F10, WT BRAF, melanoma, read-out: B16F10 (WT) IC50
# [16] = Mus musculus, B16-F10, WT BRAF, read-out: B16F10 IC50
# [17] = Homo sapiens, CHL-1, WT BRAF, melanoma, read-out: CHL-1 (WT) IC50
# [18] = Homo sapiens, CHL-1, WT BRAF, read-out: CHL-1 IC50
structure (smiles),measurement,setting,value
"CCCS(=O)(=O)Nc1cc(Cl)cc(-c2nc(C(C)(C)C)sc2-c2ccnc(N)n2)c1F [6-261, N-(3-(5-(2-aminopyrimidin-4-yl)-2-(tert-butyl)thiazol-4-yl)-5-chloro-2-fluorophenyl)propane-1-sulfonamide]",inhibition of MAPK signaling (MEK1/2 and ERK1/2 phosphorylation),[1],strongly inhibited
same,IC50,[2]; [11],2.35 ± 0.13 nM
same,Kp at 60 min,[3],0.286
same,effect of P-gp inhibitor (elacridar) co-treatment on brain exposure,[4]; result in words,did display potentiation
same,IC50,[5]; [12],> 1000 nM
same,IC50,[5]; [13],> 1000 nM
same,IC50,[6]; [14],8.5 ± 1.2 nM
same,median survival,[7],50.5 days
same,IC50,[8]; [15],> 1000 nM
same,IC50,[8]; [16],> 1000 nM
same,IC50,[9],> 1000 nM
same,"activity against glioma cell-lines with WTBRAF (U118MG, T98G, U87)",[9]; cell culture,no activity
same,IC50,[10]; [17],> 1000 nM
same,IC50,[10]; [18],> 1000 nM
"CCCS(=O)(=O)Nc1cc(Cl)cc(-c2nc(C(C)(C)C)sc2-c2ccnc(NCCCCC(=O)O)n2)c1F [6-263, 5-((4-(2-(tert-butyl)-4-(5-chloro-2-fluoro-3-(propylsulfonamido)phenyl)thiazol-5-yl)pyrimidin-2-yl)amino)pentanoic acid]",inhibition of MAPK signaling (MEK1/2 and ERK1/2 phosphorylation),[1],strongly inhibited
same,IC50,[2]; [11],22.5 ± 1.2 nM
same,Kp at 60 min,[3],0.0014 to 0.0069
same,enhancement of BBB penetrance by P-gp inhibition,[4]; 15 min,1.5 fold
same,enhancement of BBB penetrance by P-gp inhibition,[4]; 60 min,2.5 fold
same,IC50,[5]; [12],> 10000 nM
same,IC50,[5]; [13],> 10000 nM
same,IC50,[6]; [14],93.2 ± 14.1 nM
same,IC50,[8]; [15],> 10000 nM
same,IC50,[8]; [16],> 10000 nM
same,IC50,[9],> 1000 nM
same,IC50,[10]; [17],> 10000 nM
same,IC50,[10]; [18],> 10000 nM
"CC(C)(C)c1nc(-c2cccc(NS(=O)(=O)c3c(F)cccc3F)c2F)c(-c2ccnc(N)n2)s1 [Dabrafenib, reference compound]",IC50,[2]; V600E BRAF,4.76 ± 0.42 nM
same,enhancement of BBB penetrance by P-gp inhibition,[4]; 15 min,4.3 fold
same,enhancement of BBB penetrance by P-gp inhibition,[4]; 60 min,5.8 fold
same,IC50,[5]; read-out: U118MG IC50,> 1000 nM
same,IC50,[6]; V600E BRAF,6.84 ± 0.84 nM
same,median survival,[7],39 days
same,IC50,"[8]; WT BRAF, read-out: B16F10 IC50",> 1000 nM
same,IC50,"[10]; WT BRAF, read-out: CHL-1 IC50",> 1000 nM
